Entries after “also recorded” stand apart in the source; their conditions may differ. Where two headings read alike, the source gives them in different places. Non-standard residues stand in square brackets, D forms with d. Residues, ends and D or L forms follow the SMILES beside them. 1Nal = N[C@@H](Cc1cccc2ccccc12)C(=O)O; NMeF = CN[C@@H](Cc1ccccc1)C(=O)O; Cha = N[C@@H](CC1CCCCC1)C(=O)O; dCha = N[C@H](CC1CCCCC1)C(=O)O
T1: C5a receptor (Homo sapiens, UniProt P21730)
T1 construct: followed by a 20 μL aliquot of neutrophil membrane; endogenous in cells
T1 sequence (P21730 1-350): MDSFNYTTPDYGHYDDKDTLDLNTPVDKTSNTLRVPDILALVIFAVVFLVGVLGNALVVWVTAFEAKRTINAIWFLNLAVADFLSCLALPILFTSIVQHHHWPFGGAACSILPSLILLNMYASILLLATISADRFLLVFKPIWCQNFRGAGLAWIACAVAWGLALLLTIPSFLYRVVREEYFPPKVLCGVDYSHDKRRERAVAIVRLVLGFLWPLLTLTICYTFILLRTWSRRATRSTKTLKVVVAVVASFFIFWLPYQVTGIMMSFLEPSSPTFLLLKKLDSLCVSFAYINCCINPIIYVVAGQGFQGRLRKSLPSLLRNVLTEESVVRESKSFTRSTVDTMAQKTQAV

B1: C5a: 74 amino acid protein derived from the fifth component of serum complement during complement activation (protein, UniProt P01031 678-751, looked up)
C5a anaphylatoxin: TLQKKIEEIAAKYKHSVVKKCCYDGACVNNDETCEQRAARISLGPRCIKAFTECCVVASQLRANISHKDMQLGR
modifications: C5a anaphylatoxin

Assays:
[1] = target: T1, C5a receptor; test: Competition binding against 125I-labeled intact C5a on human neutrophil (PMN) membranes
Excerpt: The affinity of these peptides is shown, for example, by radiolabeling intact C5a, and using the unlabeled peptide to compete the labeled C5a from C5a receptor binding sites on cellular membranes. Preparations of polymorphonuclear leukocytes (PMN's) are known to express the C5a receptor, (inhibition of the chemotactic response to C5a of this type of cell is one desirable utility for compounds identified by the instant assay). One method for preparing these membranes is described by Rollins, T. E. et al., [J. Biol. Chem. 264:520-526 (1988); see also U.S. Pat. No. 5,177,190, herein incorporated by reference as a method for isolating and purifying C5a receptor]. Briefly, this involves isolating PMN's in large quantity, disrupting these cells and obtaining the membrane fraction by centrifugation. Protein assay of the membrane preparation allows for standardization of the amount of protein added in any set of membrane binding experiments.
In FIG. 1, unlabeled C013 is used to compete with ^125 I-labeled C5a. […] In FIG. 2, the C013 is ^125 I labeled. Unlabeled C5a and unlabeled C013 are each used to compete the labeled C013 from C5a binding sites on the membranes. […] In FIG. 3a, ^125 I-C5a is competed from its binding site by unlabeled C064 and unlabeled, natural C5a (as opposed to recombinant C5a, which, however, may also obviously may be used for these purposes). […] In FIG. 3b, the inverse experiment is shown, wherein ^125 I-C064 is displaced by unlabeled C064 and unlabeled nC5a.
Hexapeptides within this class differing only at position X have similar affinities for the C5a receptor. As measured in competition binding experiments against ^125 I-C5a on human neutrophil membranes their IC50 's varied by only a factor of 3, from 25 to 80 nM (Table II):
^2 Binding experiments were carried out with human neutrophil
Binding is initiated by an addition of 20 μL of PMN membrane (typically 0.5 μg of protein) to each tube. After incubation for 90 min. at room temperature 2 ml of 0.05 M HEPES, pH 7.2, containing 0.5% BSA are added to the tube, the contents vortexed and filtered over a Whatman GF/C filter which has been soaked in 0.3% polyethylenimine. An additional 2 ml of buffer are added to the tube and used to wash the filter. All of the test samples are dissolved in DMSO, another water miscible organic solvent, or in an aqueous solvent. Non-specific background was determined by inclusion of a 100-fold excess of unlabeled C5a.
The percent inhibition is calculated according to the following formula: [formula]
Iodination of C5a was carded out with the use of chloramine T. (Rollins, T.E., and Springer, M.S. (1985) J. Biol. Chem. 260, 7157-7160). […] Concentrations of C5a were determined by amino acid analysis and by RIA (Amersham Corp.). Membranes were prepared from human PMN as described by Rollins, T.E., Sciliano, S and Springer, M.S., J. Biol Chem 264 520-526 (1988).

[2] = tested on: human neutrophils; test: Ligand induced Ca2+ flux (Indo-1 fluorescence); type: cell-based; details: FIG. 5B
Method: FIG. 5A and 5B. Degranulation and Ca^2+ responses to the hexapeptides. […] The ED50 's for the degranulation are: C5a, 0.5 nM; C028, 0.2 μM; C026, 1 μM. C5a, maximally, released 57% of the total cellular content of MPO. The ability of these molecules to elicite a Ca^2+ -flux is shown in B. The concentrations used for C028 (10 μM), C026 (10 μM), C061 (100 μM) are those which produce a maximal flux. A saturating concentration was also used for C5a (1 nM).
Ligand induced Ca^2+ fluxes were measured by following the change in Indo-1 induced fluorescence on a FACS analyzer as previously described (Van Riper, G., Siciliano, S. J., Fischer, P. A., Meurer, R., Springer, M. S. and Rosen, H. (1993) J. Exp. Med. 177, 851-856.).
FIG. 5B compares the maximal effects of each peptide (10-100 μM) with the response induced by C5a (1 nM).

[3] = tested on: human neutrophils; test: Chemotaxis, Boyden Chamber assay; type: cell-based; details: FIG. 6A
Method: FIG. 6A and 6B. Chemotaxis and G protein activation elicited by the hexapeptides.
This assay is a modification of the procedure described by Sims et. al. (Sims, T. J., Geissler, F. T. and Page, R. C. (1985) J. lmmunol. Meth. 78, 279-291 ). Chemotaxis was assayed in a 48 well Neuro Probe chamber (Neuro Probe, Bethesda, MD) using ^51 Cr-labelled cells. Varying concentrations of C5a or peptide were placed in the lower chamber which was successively covered by a 100 μm nitrocellulose membrane (Neuro Probe, Bethesda, Md.) and two 3 μm polycarbonate filters. After preforming a gradient for 30 minutes at 37° C., 2×10^5 labelled cells were added to the upper chamber and allowed to migrate at 37° C. for one hour. The upper two polycarbonate filters were then discarded and the formed wells cut from the nitrocellulose membrane. The radioactivity present in these filters is a measure of the number of cells that migrated through both polycarbonate filters.
A plot of the initial concentration of agent placed in the lower chamber against the number of cells which migrate (measured by counting the ^51 Cr-labelled cells) is shown in FIG. 6A. For C5a, maximal response occurs at 10 nM. Since the cells migrate in response to the concentration gradient established across the filters, the actual stimulatory concentration is much lower than the nominal value plotted on the abcissa in FIG. 6A.

[4] = maximal effects, peptide 10-100 μM vs 1 nM C5a
[5] = nominal initial concentration in lower chamber
[6] = Table II, human neutrophil membranes, competition against 125I-C5a, read-out: Binding IC50

| Molecule | Ki [1] | Ca2+ response in words [2, 4] | chemotactic response in words [3] | binding affinity in words [1] | concentration which produces a maximal Ca2+ flux [2] | concentration of maximal chemotactic response (maximal migration) [3, 5] | IC50 [1, 6] | Ca2+ response relative to C028 and C5a [2, 4] | concentration of maximal chemotactic response [3, 5] | IC50 ([1]; labeled ligand 125I-C5a, read-out: IC50 exhibited by the unlabeled ligand) |
| --- | --- | --- | --- | --- | --- | --- | --- | --- | --- | --- |
| CC(C)C[C@H](NC(=O)[C@H](CC1CCCCC1)NC(=O)[C@H](CC1CCCCC1)NC(=O)[C@H](C)NC(=O)[C@H](CCCCN)NC(=O)[C@H](Cc1ccccc1)NC(=O)[C@@H](N)Cc1ccc(O)cc1)C(=O)N[C@H](Cc1ccccc1)C(=O)N[C@@H](CCCNC(=N)N)C(=O)O [C009, Tyr Phe Lys Ala Cha Cha Leu dPhe Arg] (H-YFKA[Cha][Cha]L[dF]R-OH) | 8 nM |  |  |  |  |  |  |  |  |  |
| CN[C@@H](Cc1ccccc1)C(=O)N[C@@H](CCCCN)C(=O)N1CCC[C@H]1C(=O)N[C@H](CC1CCCCC1)C(=O)N[C@@H](Cc1c[nH]c2ccccc12)C(=O)N[C@H](CCCNC(=N)N)C(=O)O [C089] |  | fails to stimulate a detectable change in Ca^2+ level | little or no ability to stimulate a chemotactic response | excellent ability to inhibit C5a binding |  |  |  |  |  |  |
| CN[C@@H](Cc1ccccc1)C(=O)N[C@@H](CCCCN)C(=O)N1CCC[C@H]1C(=O)N[C@H](CC1CCCCC1)C(=O)N[C@@H](CC1CCCCC1)C(=O)N[C@H](CCCNC(=N)N)C(=O)O [C028, MePhe Lys Pro dCha Cha dArg] (H-[NMeF]KP[dCha][Cha][dR]-OH) |  | comparable elevations in Ca^2+ level | strong chemoattractants |  | 10 µM | 1 µM | 25 nM |  |  |  |
| CN[C@@H](Cc1ccccc1)C(=O)N[C@@H](CCCCN)C(=O)N1CCC[C@H]1C(=O)N[C@H](CC1CCCCC1)C(=O)N[C@@H](Cc1ccccc1)C(=O)N[C@H](CCCNC(=N)N)C(=O)O [C026, NMeF--K--P-dCha-F-dR] (H-[NMeF]KP[dCha]F[dR]-OH) |  |  | full agonist in chemotaxis; also recorded: strong chemoattractants; also recorded: as chemotactic as C028 |  | 10 µM | 1 µM | 50 nM | 50% |  |  |
| CN[C@@H](Cc1ccccc1)C(=O)N[C@@H](CCCCN)C(=O)N1CCC[C@H]1C(=O)N[C@H](CC1CCCCC1)C(=O)N[C@@H](Cc1cccc2ccccc12)C(=O)N[C@H](CCCNC(=N)N)C(=O)O [C061] (H-[NMeF]KP[dCha][1Nal][dR]-OH) |  | only a very small increase in intracellular Ca^2+ levels; also recorded: small increase in the level of intracellular Ca^2+ | good chemotactic activity; also recorded: elicits as great an accumulation of cells as either C026, or C028, or for that matter, C5a |  | 100 µM | about 100 μM | 80 nM |  |  |  |
| B1 |  | comparable elevations in Ca^2+ level |  |  |  |  | 0.03 nM |  | 10 nM | 0.066 nM |

From patent US5614370A, “Assay to identify human C5a antagonists and agonists” (Merck & Co., Inc., priority 1994, dated 1997)
